{
  "source": "patent US20250199004A1",
  "about": "“METHODS OF EVALUATING TREATMENT OUTCOME IN HIGH GRADE SEROUS OVARIAN CANCER” (THE REGENTS OF THE UNIVERSITY OF COLORADO, A BODY CORPORATE, priority 2018, published 2025)",
  "key": {"[1]": {"test_system": "PEO1 cells", "experiment": "Cisplatin dose-response, cell viability by MTT assay", "assay_type": "cell-based, human", "conditions": "48 hours", "procedure": "(§1) A majority of HGSOC patients treated with platinum-based (i.e., carboplatin) chemotherapy develop chemoresistance. […] To test this hypothesis, CBX2 knockdown OVCAR4, PEO1, and OVCAR8 cells were grown in an adherent setting for 24 h and subsequently treated with increasing doses of cisplatin.\n(§2) The panels in FIG. 7A and FIG. 7B are as follows. Panel A: shControl (shCtrl), shCBX2 #1 and #2 OVCAR8 cells grown in adherent were dosed with cisplatin for 24 hours. Treated cells were utilized for a MTT assay to assess cell viability. Panel B: Same as A, but adherent PEO1 cells were dosed with cisplatin for 48 hours. Panel C: Same as A, but OVCAR8 cells in suspension were dosed with cisplatin for 24 hours. Panel D: Same as A, but PEO1 cells in suspension were dosed with cisplatin for 48 hours. IC50 values were calculated with Prism and are indicated.\nPEO1 and OVCAR4 cells were plated in 96-well plates in both adherent (4000 cells per well) and suspension (6000 cells per well) environments, as described above. These cells were treated over 24 h with increasing concentrations of Cisplatin (0.5-100 μM). 1640 RPMI media and media with 0.9% NaCl were used for control and vehicle control, respectively. Cell viability was assessed using the 3-(4,5-dimethylthiazol-2-yl)-5-(3-carboxymethoxyphenyl)-2-(4-sulfophenyl)-2H-tetrazolium (MTT) assay (Promega, Madison, WI). […]"}, "[2]": {"test_system": "OVCAR8 cells", "experiment": "Cisplatin dose-response, cell viability by MTT assay", "assay_type": "cell-based, human", "conditions": "24 hours", "procedure": "as §2, with “A majority of HGSOC patients treated with platinum-based (i.e., carboplatin) chemotherapy develop chemoresistance. […] To test this hypothesis, CBX2 knockdown OVCAR4, PEO1, and OVCAR8 cells were grown in an adherent setting for 24 h and subsequently treated with increasing doses of cisplatin. […] The” for “The”"}, "[3]": {"test_system": "OVCAR4 cells", "experiment": "Annexin V/PI apoptosis assay", "assay_type": "cell-based, human", "conditions": "OVCAR4 adherent, loss of CBX2 (shCBX2 #1 or #2) vs shControl, cisplatin 10 μM", "procedure": "(§3) Panels of FIG. 6 are as follows. Panel A: OVCAR4 shControl, shCBX2 #1, and shCBX2 #2 in 96-well plates treated over 24 h with increasing dose of cisplatin (0.5-100 μM). Percent cell viability was measured using the MTT assay and the half maximal inhibitory concentration (IC50) calculated. Panel B: Similarly to (Panel A), OVCAR4 knockdown cell lines were grown in low adherent 96-well plates (forced suspension) and treated with increasing doses of cisplatin over 24 h and percent cell viability measured with MTT for calculation of IC50. Panel C: Annexin/V apoptosis assay of OVCAR4 cells grown in adherent setting with shControl, shCBX2 #1 or #2 treated with cisplatin (10 μM) compared to untreated control. Percent Annexin positive cells are shown. Statistical test=ANOVA. Error bars=S.E.M.\nFollowing 72 h of growth in adherent and suspended states, OVCAR4 and PEO1 cells were harvested and washed in PBS. Alexa Fluor™ 488 Conjugated AnnexinV and Propidium Iodide (PI) (Thermo Fisher Scientific) staining were performed following manufacturer's protocol."}, "[4]": {"test_system": "OVCAR4 cells", "conditions": "cells allowed to recover 72 h following cisplatin treatment; read-out: OVCAR4 cisplatin IC50 reported by Haley et al.; cited from earlier work"}, "[5]": {"test_system": "OVCAR4 cells", "experiment": "Cisplatin dose-response, cell viability by MTT assay", "assay_type": "cell-based, human", "conditions": "for IC50: 24 h, MTT", "procedure": "as §1\nCBX2 knockdown OVCAR4, PEO1, and OVCAR8 cells were grown in suspension and dosed with cisplatin. […] Although not as robust as OVCAR4 cells, CBX2knockdown also sensitized OVCAR8 and PEO1 cells to cisplatin (FIG. 7B Panels C-D). […] In addition, we further confirmed that in OVCAR4, loss of CBX2 lead to increased cisplatin-induced apoptosis measured with Annexin V/PI (FIG. 6 Panel C).\nas §3\nPEO1 and OVCAR4 cells were plated in 96-well plates in both adherent (4000 cells per well) and suspension (6000 cells per well) environments, as described above. These cells were treated over 24 h with increasing concentrations of Cisplatin (0.5-100 μM). 1640 RPMI media and media with 0.9% NaCl were used for control and vehicle control, respectively. Cell viability was assessed using the 3-(4,5-dimethylthiazol-2-yl)-5-(3-carboxymethoxyphenyl)-2-(4-sulfophenyl)-2H-tetrazolium (MTT) assay (Promega, Madison, WI). Means of at least five wells are reported and experiments were independently repeated in triplicate. Representative dose-response curves are shown."}},
  "note": "Where two headings read alike, the source gives them in different places.",
  "data": [
    {"smiles": "N.N.[Cl][Pt][Cl]", "note": "[cisplatin]", "values": [
      {"measurement": "chemosensitivity to cisplatin, shCBX2 cell lines vs shControl cells", "setting": "[1]; PEO1, adherent", "result": "significantly more chemosensitive"},
      {"measurement": "sensitivity to cisplatin after CBX2 knockdown", "setting": "[1]; PEO1, suspension", "result": "sensitized"},
      {"measurement": "chemosensitivity to cisplatin, shCBX2 cell lines vs shControl cells", "setting": "[2]; OVCAR8, adherent", "result": "significantly more chemosensitive"},
      {"measurement": "sensitivity to cisplatin after CBX2 knockdown", "setting": "[2]; OVCAR8, suspension", "result": "sensitized"},
      {"measurement": "cisplatin-induced apoptosis measured with Annexin V/PI", "setting": "[3]", "result": "increased"},
      {"measurement": "IC50", "setting": "[4]", "result": "~6", "unit": "µM"},
      {"measurement": "chemosensitivity to cisplatin, shCBX2 cell lines vs shControl cells", "setting": "[5]; OVCAR4, adherent", "result": "significantly more chemosensitive"},
      {"measurement": "increase in the cisplatin IC50 in suspension cells compared to the adherent cells", "setting": "[5]; OVCAR4 cells", "result": 4.47, "unit": "fold"},
      {"measurement": "IC50", "setting": "[5]; OVCAR4 control with intact CBX2, adherent", "result": 38.7, "unit": "µM"},
      {"measurement": "IC50", "setting": "[5]; OVCAR4 control with intact CBX2, suspension", "result": 170, "unit": "µM"},
      {"measurement": "IC50", "setting": "[5]; OVCAR4 shCBX2 #1 knockdown cells, adherent", "result": 12.7, "unit": "µM"},
      {"measurement": "IC50", "setting": "[5]; OVCAR4 shCBX2 #1 knockdown cells, suspension", "result": 7.19, "unit": "µM"},
      {"measurement": "IC50", "setting": "[5]; OVCAR4 shCBX2 #2 knockdown cells, adherent", "result": 15.4, "unit": "µM"},
      {"measurement": "IC50", "setting": "[5]; OVCAR4 shCBX2 #2 knockdown cells, suspension", "result": 18.1, "unit": "µM"}
    ]}
  ]
}
